Test results as given in patent USRE39591E1, “6-O-substituted ketolides having antibacterial activity” (Abbott Laboratories, priority 1996, dated 2007).
Values after ≈ are worked out from the molar mass of the structure shown.

Test system: up to 32 different microorganisms
Assay: in vitro antibacterial activity (MIC), agar dilution on Brain Heart Infusion (BHI) agar with Steers replicator
Type: cell-based
Conditions: unit assumed
Protocol: Representative compounds of the present invention were assayed in vitro for antibacterial activity as follows: Twelve petri dishes containing successive aqueous dilutions of the test compound mixed with 10 mL of sterilized Brain Heart Infusion (BHI) agar (Difco 0148-01-5) were prepared. Each plate was inoculated with 1:100 (or 1:10 for slow-growing strains, such as Micrococcus and Streptococcus) dilutions of up to 32 different microorganisms, using a Steers replicator block. The inoculated plates were incubated at 35°-37° C. for 20 to 24 hours. In addition, a control plate, using BHI agar containing no test compound, was prepared and incubated at the beginning and end of each test.
An additional plate containing a compound having known susceptibility patterns for the organisms being tested and belonging to the same antibiotic class as the test compound was also prepared and incubated as a further control, as well as to provide test-to-test comparability. Erythromycin A was used for this purpose.
After incubation, each plate was visually inspected. The minimum inhibitory concentration (MIC) was defined as the lowest concentration of drug yielding no growth, a slight haze, or sparsely isolated colonies on the inoculum spot as compared to the growth control.

[1] = Candida albicans CCH 442 (code TT)
[2] = Enterococcus faecism ATCC 8043 (code II)
[3] = Escherichia coli DC-2 (code SS)
[4] = Escherichia coli JUHL (code QQ)
[5] = Haemophilis influenzae DILL AMP R (code WW)
[6] = Micrococcus luteus ATCC 4698 (code PP)
[7] = Micrococcus luteus ATCC 9341 (code OO)
[8] = Mycobacterium smegmatis ATCC 114 (code UU)
[9] = Nocardia Asteroides ATCC9970 (code VV)
[10] = Staphylococcus aureus 1775 (code GG)
[11] = Staphylococcus aureus A5177 (code BB)
[12] = Staphylococcus aureus A-5278 (code CC)
[13] = Staphylococcus aureus ATCC 6538P (code AA)
[14] = Staphylococcus aureus CMX 553 (code FF)
[15] = Staphylococcus aureus CMX 642A (code DD)
[16] = Staphylococcus aureus NCTC10649M (code EE)
[17] = Staphylococcus epidermidis 3519 (code HH)
[18] = Streptococcus Pneumonia 5649 (code ZZA)
[19] = Streptococcus Pneumonia 5979 (code ZZ)
[20] = Streptococcus Pneumonia ATCC6303 (code XX)
[21] = Streptococcus Pneumonia GYR 1171 (code YY)
[22] = Streptococcus agalactiae CMX 508 (code KK)
[23] = Streptococcus bovis A-5169 (code JJ)
[24] = Streptococcus pyogenes 930 (code MM)
[25] = Streptococcus pyogenes EES61 (code LL)
[26] = Streptococcus pyogenes PIU 2548 (code NN)

For `CCC1OC(=O)C(C)C(=O)C(C)C(OC2OC(C)CC(N(C)C)C2O)C(C)(OCC=Cc2cnc3ccc(C(=O)OC)cc3c2)CC(C)C(=O)C(C)C2NC(=O)OC12C` (stereo not drawn) [Example 216, R is —CH2CH═CH-(6-methoxycarbonyl-3-quinolyl)], the MIC (organism code AA) was 0.2 mg/L (≈ 0.243 µM), the MIC (organism code BB) was 0.2 mg/L (≈ 0.243 µM) and the MIC (organism code CC) was greater than 100 mg/L. For the same compound, the MIC (organism code DD) was 0.2 mg/L (≈ 0.243 µM), the MIC (organism code EE) was 0.2 mg/L (≈ 0.243 µM) and the MIC (organism code FF) was 0.2 mg/L (≈ 0.243 µM). For the same compound, the MIC (organism code GG) was greater than 100 mg/L, the MIC (organism code HH) was 0.2 mg/L (≈ 0.243 µM) and the MIC (organism code II) was 0.05 mg/L (≈ 0.0607 µM). The MIC (organism code JJ) was 0.01 mg/L (≈ 0.0121 µM), the MIC (organism code KK) was 0.02 mg/L (≈ 0.0243 µM) and the MIC (organism code LL) was 0.02 mg/L (≈ 0.0243 µM). It also gave an MIC (organism code MM) of 0.78 mg/L (≈ 0.947 µM), an MIC (organism code NN) of 0.2 mg/L (≈ 0.243 µM) and an MIC (organism code OO) of 0.05 mg/L (≈ 0.0607 µM). The MIC (organism code PP) was 0.1 mg/L (≈ 0.121 µM), the MIC (organism code QQ) was 100 mg/L (≈ 121 µM) and the MIC (organism code RR) was 0.39 mg/L (≈ 0.473 µM). For the same compound, the MIC (organism code SS) was greater than 100 mg/L, the MIC (organism code TT) was greater than 100 mg/L and the MIC (organism code UU) was 0.78 mg/L (≈ 0.947 µM). The MIC (organism code VV) was 0.1 mg/L (≈ 0.121 µM), the MIC (organism code WW) was 2 mg/L (≈ 2.43 µM) and the MIC (organism code XX) was 0.015 mg/L (≈ 0.0182 µM). It also gave an MIC (organism code YY) of 0.015 mg/L (≈ 0.0182 µM), an MIC (organism code ZZ) of 0.5 mg/L (≈ 0.607 µM) and an MIC (organism code ZZA) of 0.25 mg/L (≈ 0.303 µM).

Compound `CCC1OC(=O)C(C)C(=O)C(C)C(OC2OC(C)CC(N(C)C)C2O)C(C)(OCC=Cc2ccc3cccnc3c2)CC(C)C(=O)C(C)C2NC(=O)OC12C` (stereo not drawn) [Example 278, Compound of Formula (IX): L is CO, T is NH2, R is —CH2CH═CH-(7-quinolyl)] has an MIC (organism code AA) of 0.05 mg/L, an MIC (organism code BB) of 0.05 mg/L and an MIC (organism code CC) greater than 100 mg/L. For the same compound, the MIC (organism code DD) was 0.05 mg/L, the MIC (organism code EE) was 0.05 mg/L and the MIC (organism code FF) was 0.05 mg/L. It also gave an MIC (organism code GG) greater than 100 mg/L, an MIC (organism code HH) of 0.1 mg/L and an MIC (organism code II) of 0.05 mg/L. It also gave an MIC (organism code JJ) of 0.01 mg/L, an MIC (organism code KK) of 0.01 mg/L and an MIC (organism code LL) of no more than 0.005 mg/L. It also gave an MIC (organism code MM) of 1.56 mg/L, an MIC (organism code NN) of 0.2 mg/L and an MIC (organism code OO) of 0.01 mg/L. It also gave an MIC (organism code PP) of 0.1 mg/L, an MIC (organism code QQ) of 25 mg/L and an MIC (organism code RR) of 0.39 mg/L. The MIC (organism code SS) was 12.5 mg/L, the MIC (organism code TT) was greater than 100 mg/L and the MIC (organism code UU) was 0.78 mg/L. For the same compound, the MIC (organism code VV) was 0.02 mg/L, the MIC (organism code WW) was 4 mg/L and the MIC (organism code XX) was 0.03 mg/L. It also gave an MIC (organism code YY) of 0.03 mg/L, an MIC (organism code ZZ) of 128 mg/L and an MIC (organism code ZZA) of 0.5 mg/L.

In the case of `CCC1OC(=O)C(C)C(=O)C(C)C(OC2OC(C)CC(N(C)C)C2O)C(C)(OCC=Cc2ccc3c(c2)OCCO3)CC(C)C(=O)C(C)C2NC(=O)OC12C` (stereo not drawn) [Example 192], the MIC [1] is reported as greater than 100 mg/L, the MIC [2] is reported as 0.02 mg/L (≈ 0.0259 µM) and the MIC [3] is reported as 100 mg/L (≈ 129 µM). The MIC [4] was greater than 100 mg/L, the MIC (Escherichia coli SS (code RR)) was 0.2 mg/L (≈ 0.259 µM) and the MIC [5] was 4 mg/L (≈ 5.18 µM). It also gave an MIC [6] of 0.2 mg/L (≈ 0.259 µM), an MIC [7] of 0.01 mg/L (≈ 0.0129 µM) and an MIC [8] of 3.1 mg/L (≈ 4.01 µM). It also gave an MIC [9] of 0.1 mg/L (≈ 0.129 µM), an MIC [10] greater than 100 mg/L and an MIC [11] of 0.1 mg/L (≈ 0.129 µM). The MIC [12] was greater than 100 mg/L, the MIC [13] was 0.1 mg/L (≈ 0.129 µM) and the MIC [14] was 0.1 mg/L (≈ 0.129 µM). The MIC [15] was 0.1 mg/L (≈ 0.129 µM), the MIC [16] was 0.2 mg/L (≈ 0.259 µM) and the MIC [17] was 0.1 mg/L (≈ 0.129 µM). It also gave an MIC [18] of 0.25 mg/L (≈ 0.323 µM), an MIC [19] greater than 128 mg/L and an MIC [20] of 0.03 mg/L (≈ 0.0388 µM). The MIC [21] was 0.03 mg/L (≈ 0.0388 µM), the MIC [22] was 0.01 mg/L (≈ 0.0129 µM) and the MIC [23] was 0.01 mg/L (≈ 0.0129 µM). For the same compound, the MIC [24] was 50 mg/L (≈ 64.7 µM), the MIC [25] was 0.01 mg/L (≈ 0.0129 µM) and the MIC [26] was 0.1 mg/L (≈ 0.129 µM).

With `CC[C@H]1OC(=O)[C@H](C)C(=O)[C@H](C)[C@@H](O[C@@H]2O[C@H](C)C[C@H](N(C)C)[C@H]2O)[C@@](C)(OCCCc2ccccc2)C[C@@H](C)C(=O)[C@H](C)[C@@H](O)[C@]1(C)O` [Example 15, Compound of Formula (VIII): X is O, R is —CH2CH2CH2-Phenyl] the MIC [1] was greater than 100 mg/L, the MIC [2] was 1.56 mg/L and the MIC [3] was greater than 100 mg/L. It also gave an MIC [4] greater than 100 mg/L, an MIC (Escherichia coli SS (code RR)) of 6.2 mg/L and an MIC [5] greater than 64 mg/L. It also gave an MIC [6] of 3.1 mg/L, an MIC [7] of 0.78 mg/L and an MIC [8] of 6.2 mg/L. The MIC [9] was 1.56 mg/L, the MIC [10] was greater than 100 mg/L and the MIC [11] was 6.2 mg/L. For the same compound, the MIC [12] was greater than 100 mg/L, the MIC [13] was 6.2 mg/L and the MIC [14] was 6.2 mg/L. The MIC [15] was 6.2 mg/L, the MIC [16] was 6.2 mg/L and the MIC [17] was 6.2 mg/L. For the same compound, the MIC [18] was 1 mg/L, the MIC [19] was 32 mg/L and the MIC [20] was 1 mg/L. The MIC [21] was 1 mg/L, the MIC [22] was 0.2 mg/L and the MIC [23] was 0.2 mg/L. It also gave an MIC [24] of 100 mg/L, an MIC [25] of 0.39 mg/L and an MIC [26] of 3.1 mg/L.
